These results are taken from ChEMBL document CHEMBL1201862, “PubChem BioAssay data set” (2004).

One assay concerns T-cell. Nature of the assay: inhibitors of CD8+ T cell–vesicle binding, dose response, mouse 2C CD8+ T cells, flow cytometry (AID 485284). The class given is functional.
The test system of another assay is INS1. Put plainly: beta cell apoptosis inhibitors, cytokine rescue, dose response, luminescence, retest (AID 449756).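 Further: cell death triggered by IL-1 beta plus TNF-alpha plus IFN-gamma mixture; protective hits raise ATP signal compared with cytokine alone wells.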 Type of assay: functional, cell-based. The settings on record: Rattus norvegicus.
For assay [1], the system named is BJ. Put plainly: cytotoxicity toward BJ-TERT fibroblasts, dose response, cell-based, RAS-independent, luminescence (AID 1933). Type of assay: functional. As to conditions: Homo sapiens.
The target of assay [2] is T1, Apoptotic protease-activating factor 1 (Homo sapiens, UniProt O14727).
T1 sequence (O14727 whole entry): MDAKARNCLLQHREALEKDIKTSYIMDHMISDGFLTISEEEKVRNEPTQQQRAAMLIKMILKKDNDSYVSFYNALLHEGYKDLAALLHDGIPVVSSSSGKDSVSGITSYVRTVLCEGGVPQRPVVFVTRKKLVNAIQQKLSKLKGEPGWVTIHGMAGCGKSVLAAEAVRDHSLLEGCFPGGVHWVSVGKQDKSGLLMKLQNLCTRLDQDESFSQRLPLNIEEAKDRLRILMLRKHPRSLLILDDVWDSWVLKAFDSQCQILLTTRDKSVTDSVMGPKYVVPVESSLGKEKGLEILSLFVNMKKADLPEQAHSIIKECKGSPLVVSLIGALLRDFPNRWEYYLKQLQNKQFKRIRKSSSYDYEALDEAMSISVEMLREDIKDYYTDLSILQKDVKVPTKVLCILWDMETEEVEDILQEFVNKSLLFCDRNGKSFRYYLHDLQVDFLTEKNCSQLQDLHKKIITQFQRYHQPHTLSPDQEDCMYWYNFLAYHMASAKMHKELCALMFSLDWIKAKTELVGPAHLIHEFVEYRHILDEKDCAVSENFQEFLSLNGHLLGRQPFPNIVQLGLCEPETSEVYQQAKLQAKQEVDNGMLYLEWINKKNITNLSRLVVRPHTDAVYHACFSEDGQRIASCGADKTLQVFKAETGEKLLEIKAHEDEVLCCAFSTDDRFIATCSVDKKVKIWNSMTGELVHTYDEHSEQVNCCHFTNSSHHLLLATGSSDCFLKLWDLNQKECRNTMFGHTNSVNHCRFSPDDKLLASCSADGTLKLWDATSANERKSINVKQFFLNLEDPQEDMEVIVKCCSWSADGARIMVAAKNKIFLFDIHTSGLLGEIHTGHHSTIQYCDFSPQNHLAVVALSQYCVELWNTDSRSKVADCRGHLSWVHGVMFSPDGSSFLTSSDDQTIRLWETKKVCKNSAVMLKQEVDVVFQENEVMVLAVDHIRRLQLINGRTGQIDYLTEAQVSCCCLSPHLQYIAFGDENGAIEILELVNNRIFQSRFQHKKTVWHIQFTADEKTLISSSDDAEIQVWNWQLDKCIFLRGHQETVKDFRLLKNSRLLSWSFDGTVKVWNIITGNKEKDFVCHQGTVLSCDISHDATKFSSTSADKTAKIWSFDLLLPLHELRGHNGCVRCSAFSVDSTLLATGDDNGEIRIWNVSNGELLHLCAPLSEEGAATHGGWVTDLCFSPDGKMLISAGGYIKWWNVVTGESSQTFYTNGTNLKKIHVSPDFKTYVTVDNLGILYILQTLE
Type of assay: functional.

Assay [3] can be described thus: Intein inhibitors as potential Tuberculosis drugs, a cytotoxicity screen. [Related pubchem assays (depositor defined):AID2221, AID2223, AID434968, AID435010, AID449749, AID449750, AID489010]. The class given is functional.
Assay [4] addresses T2, Replicative DNA helicase DnaB (Mycobacterium tuberculosis, UniProt P9WMR3).
T2 sequence (P9WMR3 whole entry): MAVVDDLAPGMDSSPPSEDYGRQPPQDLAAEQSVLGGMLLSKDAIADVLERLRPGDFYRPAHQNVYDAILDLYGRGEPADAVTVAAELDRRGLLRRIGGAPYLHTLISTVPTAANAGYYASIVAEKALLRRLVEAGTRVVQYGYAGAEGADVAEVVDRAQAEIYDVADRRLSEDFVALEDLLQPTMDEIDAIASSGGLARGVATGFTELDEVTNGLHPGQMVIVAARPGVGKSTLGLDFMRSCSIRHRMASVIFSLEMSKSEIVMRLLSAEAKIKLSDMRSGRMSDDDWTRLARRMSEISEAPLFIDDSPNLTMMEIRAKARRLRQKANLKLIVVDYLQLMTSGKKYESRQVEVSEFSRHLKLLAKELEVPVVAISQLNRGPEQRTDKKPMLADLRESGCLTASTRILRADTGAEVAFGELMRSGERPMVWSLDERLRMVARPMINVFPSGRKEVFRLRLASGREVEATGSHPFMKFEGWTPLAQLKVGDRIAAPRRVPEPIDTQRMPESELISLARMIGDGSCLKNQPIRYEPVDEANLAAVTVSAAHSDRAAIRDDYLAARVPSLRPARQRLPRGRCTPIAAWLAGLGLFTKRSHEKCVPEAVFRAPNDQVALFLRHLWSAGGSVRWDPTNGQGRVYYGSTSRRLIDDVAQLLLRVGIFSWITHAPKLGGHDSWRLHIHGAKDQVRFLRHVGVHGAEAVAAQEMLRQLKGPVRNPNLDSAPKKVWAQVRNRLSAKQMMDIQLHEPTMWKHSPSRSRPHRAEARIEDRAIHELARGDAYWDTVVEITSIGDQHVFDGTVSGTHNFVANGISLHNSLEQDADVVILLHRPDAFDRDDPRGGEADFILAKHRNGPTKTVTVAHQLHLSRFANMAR
Put plainly: DnaB intein splicing inhibitors, dose response, biochemical, cell-free fluorescence (AID 449749). Type of assay: functional.

Assay [5] has as its system BJ. Nature of the assay: cells. The settings on record: Homo sapiens. Type of assay: functional, cell-based.
The nature of assay [6]: inhibitors of firefly luciferase expression or activity, dose response, H4 neuroglioma cells, luminescence (AID 1990). The class given is functional, cell-based.
Assay [7] concerns the target Mitochondrial peptide methionine sulfoxide reductase (Bos taurus, UniProt P54149). The class given is functional.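 Further: absorbance read-out, biochemical high-throughput dose-response screen for MsrA inhibitors, confirmatory; recombinant bovine MsrA coupled to E. coli TrxB with NADPH and selenocystamine; potency is for inhibitors of MsrA activity on DMSO substrate.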
Assay [8] can be described thus: Luminescence Cell-Based Dose Response HTS to Identify Inhibitors of 5'UTR Stem-Loop Driven Prion Protein mRNA Translation in H4 Neuroglioblastoma Cells. [Related pubchem assays: 1827 (Project Summary), 1813 (Primary HTS)]. Type of assay: functional.
Assay [9] has as its system BJ. Nature of the assay: cytotoxicity toward BJ-TERT-LT-ST fibroblasts, dose response, cell-based, RAS-independent, luminescence (AID 1935).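 Further: BJ fibroblasts immortalized with TERT plus LT and ST oncogenes.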 Type of assay: functional. As to conditions: Homo sapiens.
In a further assay the target is T3, Protein RecA (Mycobacterium tuberculosis, UniProt P9WHJ3).
T3 sequence (P9WHJ3 whole entry): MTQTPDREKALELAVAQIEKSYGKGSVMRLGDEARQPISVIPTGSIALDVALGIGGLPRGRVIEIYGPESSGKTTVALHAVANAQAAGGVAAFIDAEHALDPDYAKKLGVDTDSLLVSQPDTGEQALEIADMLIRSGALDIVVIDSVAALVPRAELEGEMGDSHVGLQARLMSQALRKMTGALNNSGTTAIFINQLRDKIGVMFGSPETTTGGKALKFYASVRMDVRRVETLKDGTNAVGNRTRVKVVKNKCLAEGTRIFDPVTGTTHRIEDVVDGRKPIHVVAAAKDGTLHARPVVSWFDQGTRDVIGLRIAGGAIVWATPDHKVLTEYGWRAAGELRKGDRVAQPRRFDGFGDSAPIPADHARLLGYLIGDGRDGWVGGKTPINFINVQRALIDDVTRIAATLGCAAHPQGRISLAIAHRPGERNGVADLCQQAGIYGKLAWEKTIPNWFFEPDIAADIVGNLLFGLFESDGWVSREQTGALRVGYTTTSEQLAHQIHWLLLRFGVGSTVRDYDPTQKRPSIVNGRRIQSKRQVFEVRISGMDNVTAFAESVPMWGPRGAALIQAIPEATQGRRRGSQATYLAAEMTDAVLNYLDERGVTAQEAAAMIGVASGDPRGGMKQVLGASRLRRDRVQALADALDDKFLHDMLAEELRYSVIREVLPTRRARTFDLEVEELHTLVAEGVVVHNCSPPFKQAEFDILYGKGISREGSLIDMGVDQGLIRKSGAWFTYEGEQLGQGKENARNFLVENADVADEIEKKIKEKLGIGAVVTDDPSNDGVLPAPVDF
Nature of the assay: Fluorescence Cell-Free Homogeneous Dose Retest to Identify Inhibitors of RecA-Intein Splicing Activity. [Related pubchem assays (depositor defined):AID2097, AID2223, AID489010, AID492950]. The class given is functional.

A short description of assay [10]: cytotoxicity toward DRD oncogenic fibroblasts, dose response, cell-based, non-viral oncogenic, luminescence (AID 1934). The class given is functional. The settings on record: Homo sapiens.
The target of assay [11] is Alkaline phosphatase, placental type (Homo sapiens, UniProt P05187). Put plainly: PLAP enzyme inhibitors, confirmation, biochemical, luminescence (AID 1512). The class given is functional.
The target in assay [12] is Alkaline phosphatase, tissue-nonspecific isozyme (Homo sapiens, UniProt P05186). Put plainly: human TNAP enzyme inhibitors, SAR follow-up, biochemical, luminescent, dose response (AID 1056).

Structures are written as SMILES. Active and inactive are the calls of the source.
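Wherever CC50 is given: cells exposed to compound for 72 hours before luminescence readout.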

Chain of Alkaline phosphatase, tissue-nonspecific isozyme (P05186 whole entry): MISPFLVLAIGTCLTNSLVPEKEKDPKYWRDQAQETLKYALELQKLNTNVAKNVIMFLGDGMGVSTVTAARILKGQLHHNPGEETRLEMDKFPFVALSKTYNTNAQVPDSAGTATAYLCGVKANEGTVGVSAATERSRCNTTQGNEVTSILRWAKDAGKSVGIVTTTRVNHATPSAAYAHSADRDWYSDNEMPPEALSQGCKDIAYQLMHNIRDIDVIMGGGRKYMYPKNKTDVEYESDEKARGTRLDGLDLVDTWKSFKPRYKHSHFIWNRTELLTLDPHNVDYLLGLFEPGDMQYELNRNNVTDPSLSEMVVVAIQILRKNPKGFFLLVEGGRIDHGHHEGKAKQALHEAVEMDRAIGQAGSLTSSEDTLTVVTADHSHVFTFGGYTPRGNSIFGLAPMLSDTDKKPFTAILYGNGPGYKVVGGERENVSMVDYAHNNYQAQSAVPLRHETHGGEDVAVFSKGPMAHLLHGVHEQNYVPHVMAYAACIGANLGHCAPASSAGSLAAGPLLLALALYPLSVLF
Chain of Alkaline phosphatase, placental type (P05187 whole entry): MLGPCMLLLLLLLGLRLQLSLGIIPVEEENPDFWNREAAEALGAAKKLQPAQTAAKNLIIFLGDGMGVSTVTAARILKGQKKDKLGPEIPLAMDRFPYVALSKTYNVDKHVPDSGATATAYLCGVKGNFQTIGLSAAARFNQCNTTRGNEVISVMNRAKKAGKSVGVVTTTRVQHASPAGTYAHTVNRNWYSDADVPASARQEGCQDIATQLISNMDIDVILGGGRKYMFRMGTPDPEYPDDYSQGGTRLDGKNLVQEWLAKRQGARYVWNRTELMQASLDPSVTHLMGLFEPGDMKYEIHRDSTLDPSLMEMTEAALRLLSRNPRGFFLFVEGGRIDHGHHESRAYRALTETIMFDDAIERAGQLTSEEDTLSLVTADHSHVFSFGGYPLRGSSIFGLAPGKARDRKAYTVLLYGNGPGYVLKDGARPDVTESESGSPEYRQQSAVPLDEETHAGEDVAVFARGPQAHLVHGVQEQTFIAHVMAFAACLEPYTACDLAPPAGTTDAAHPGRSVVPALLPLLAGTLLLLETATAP
Chain of Mitochondrial peptide methionine sulfoxide reductase (P54149 whole entry): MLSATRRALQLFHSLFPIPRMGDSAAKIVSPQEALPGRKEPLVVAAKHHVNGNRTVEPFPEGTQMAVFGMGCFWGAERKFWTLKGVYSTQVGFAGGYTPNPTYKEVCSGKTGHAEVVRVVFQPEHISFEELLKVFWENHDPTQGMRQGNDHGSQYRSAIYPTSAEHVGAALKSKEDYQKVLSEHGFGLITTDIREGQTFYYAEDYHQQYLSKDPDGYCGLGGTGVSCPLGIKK

Consider `CCOc1ccccc1NC(=O)c1ccc(F)c(S(=O)(=O)N2CCC3(CC2)OCCO3)c1`, for which the EC50 in the assay with T-cell was 16.4 µM (active).
For `Cc1oc2c(c1C(=O)N1CCOCC1)C(=O)c1ccccc1C2=O`, the AC50 with INS1 was 2.45 µM (active); in assay [4], 1.41 µM (active). Further, the EC50 in the assay with BJ [1] was 11.8 µM (active); with BJ [5], 13.4 µM (active); in [6], 8.24 µM (active); in assay [8], 8.93 µM (active); in the assay on BJ [9], > 75 µM (inconclusive); on Protein RecA it was 0.506 µM (active). For the same compound, the EC50 in [10] was 10.5 µM (active). In addition, the IC50 in [2] is 13.9 µM (active); in [7], 64.3 µM (inactive). Moreover, the cytotoxic concentration (CC50) in assay [3] was 6.26 µM (active).
`O=C(CNc1ccncc1)c1ccc(O)c(O)c1`: the IC50 in [11] and in [12] was > 100 µM (inactive) each time.
